Values joined by “and” are separate entries in the source; they are usually repeats but may differ in a detail not shown here. Identical values can stand only once. “Also recorded” adds a separate entry of the source.
Columns and labels:
IEC-6 cells = assay: Growth of intestinal epithelial IEC-6 cells (cell count); assay type: cell-based, rat
Description: IEC-6 cells were grown in 60-mm dishes. […] Values are means±SE for 3 cultures.
To characterize the capacity of gastric and intestinal cells to respond to AMP-18, AGS gastric adenocarcinoma cells, HAE human gastric antrum mucosa primary cultures transformed with SV40 large T antigen, rat diploid small intestinal epithelial cells of the IEC-6 (FIG. 15) and IEC-18 lines, NCI N-87 gastric carcinoma cells, and SK-GT5 gastroesophageal adenocarcinoma cells were studied; human WI-38 fibroblasts and HeLa cells served as non-GI control cell lines. Mitogenesis was assayed by performing cell counts 3 to 4 days after exposing cells to the agent of interest, trypsinizing the culture to prepare single cells, and confirming this while counting them in a hemocytometer.

Caco2/bbe (C2) cells = assay: Transepithelial electrical resistance (TER) of Caco2/bbe (C2) cell monolayers after injury; assay type: cell-based, human
Description: Panel A: When a stable TER was reached (330 Ω·cm^2) in MDCK cell monolayers the medium was changed to DMEM containing FBS (0.2%), and either peptide 77-97 (8 μg/ml) or EGF (50 ng/ml). After 18 hr, peptide 77-97 or EGF were added to the specified wells. One hour later monochloramine (0.1 mM), like the other agents, was added to the apical and basal compartments of the Transwell. […] Panels B, C: Caco2/bbe (C2) subclone monolayers were grown on collagen-coated polycarbonate filters until a stable TER was reached (225 Ω·cm^2). Spent medium was replaced with fresh medium containing FBS (0.1%) alone or with peptide 77-97 (8 μg/ml). After 18 hr, monochloramine (0.3 mM, B) or indomethacin (0.1 mM, C) was added to both compartments of the Transwell. At time 0, cultures received either vehicle (control), vehicle plus oxidant or indomethacin, or peptide 77-97 and oxidant or indomethacin. TER of injured cultures treated with vehicle decreased by ˜35% at 90 min, whereas peptide-treated cultures declined ˜10%.
C2 cell monolayers were grown in DMEM containing FBS (5%) and transferrin (10 μg/ml) on collagen-coated polycarbonate filters until a stable TER was reached (225 Ωcm^2). At time 0, cells were exposed to no DSS (control), or DSS (4%) in the upper compartment of the Transwell. AMP peptide 77-97 (8 μg/ml) was added to the upper and lower compartments of the Transwell 1 day prior to the addition of DSS at time 0. TER of DSS-injured cultures treated with vehicle decreased by ˜70% at 45 min, whereas peptide-treated cultures declined ˜10% at that time. […] Values are means for ≧6 cultures.
Confluent C2 cell monolayers were prepared on Transwells until a stable TER was established. Medium was replaced with fresh medium containing FBS (0.1%) alone (control), or with either rhAMP-18 (100 nanomolar) or peptide 77-97 (3.7 micromolar). After 18 hr, monochloramine (0.3 mM) was added to both compartments of the Transwell, and cultures received either vehicle (control), vehicle plus oxidant, rhAMP-18 and oxidant, or peptide 77-97 and oxidant, after which TER was measured.
To determine whether AMP peptide could speed recovery of TER after DSS-induced colonic cell injury, a highly sought-after functional characteristic of an agent designed to treat IBD, C2 cell monolayers were exposed to DSS (5%) for 10 min which reduced TER to 33±6% of the control value (FIG. 29, left panel). DSS was removed by aspirating the medium and replacing it with fresh medium. AMP peptide 77-97 (8 μg/ml) or vehicle was added to the culture medium, and TER was measured 18 hr later. In the presence of the vehicle, TER increased from 33% to 66±7% of the control value, whereas cells exposed to AMP peptide reached a value 112±4% of control.
To determine if the cytoprotective effect of AMP peptide is mediated at the level of the actin cytoskeleton, C2 cell monolayers were exposed to cytochalasin D, an agent known to disrupt actin filaments and compromise barrier function (Madara et al., 1986).
To determine if AMP peptide could play a cytoprotective role in GDS, a study was carried out in C2 cell monolayers that were exposed to the PA-I lectin. […] Next the effect of AMP peptide was studied in the mouse model of P. aeruginosa-induced-GDS (Laughlin et al., 2000) using female Balb/c mice subjected to 30% hepatectomy, injection of a solution of living P. aeruginosa into the cecum, and food deprivation postoperatively. All 8 of the mice survived surgery.

hsp25, hsp72 = assay: Expression of heat shock proteins by IEC-18 cells after thermal injury (immunoblot); assay type: cell-based, rat; settings: 42° C. 23 min, peptide 8 μg/ml; 12 and 24 hr; listed as AMP peptide
Description: FIG. 42. Effect of AMP peptide on expression of heat shock proteins by intestinal epithelial cells after thermal injury. IEC-18 cell monolayers were subjected to non-lethal heat shock injury by exposure to 42° C. for 23 min. Immediately thereafter some cultures received AMP peptide (8 μg/ml) (P on figure); control cultures (C) received vehicle. Whole cell protein was analyzed by immunoblotting. Increased expression of hsp25 and induced hsp72 is seen 12 hr after heat shock in control cultures, but constitutive expression of hsc73 is not altered. Expression of hsp25 and 72 was increased after treatment with AMP peptide compared to vehicle at 12 and 24 hr.
In an effort to identify molecules that could mediate the cytoprotective effect of AMP peptide, it was asked if exposing intestinal epithelial cells to the peptide could modify induction of heat shock proteins (hsps) (Musch et al., 1996). Diploid non-transformed rat intestinal epithelial IEC-18 cells were used to study induction of hsps in response to thermal injury rather than C2 cells—which constitutively express hsp27 and hsp72 at high levels, possibly because they are transformed. (Hsp27 is found in human C2 cells, and hsp25 in rat IEC-18 cells. Hsp72 is often referred to as hsp70). The results depicted in FIG. 42 indicate that, as expected, hsc73 and hsp25 are constitutively expressed (0 hr), but hsp72 is not. […]

[1] = system: Staphylococcus epidermidis; assay: Growth of other bacteria and fungi; assay type: cell-based
Acinetobacter baumanii = assay: Growth of other bacteria and fungi; assay type: cell-based
Aspergillus niger = assay: Growth of other bacteria and fungi; assay type: cell-based
[2] = system: occludin, ZO-1, ZO-2, claudin-5, E-cadherin, JAM; assay: Accumulation of tight and adherens junction proteins in C2 cells (immunoblot of insoluble fraction, confocal microscopy); assay type: cell-based, human

With “LDALVKEKKLQGKGPGGPPPK [97–117, peptide 77-97 of the mature protein, same as 97-117 of the human precursor]” the “growth stimulation of IEC-6 cells (in words)” value (IEC-6 cells) was “stimulated growth in a concentration-dependent manner”, the “concentration at near-maximal growth stimulation” value (IEC-6 cells; FIG. 15, center panel, listed as AMP peptide) was 0.5 μg/ml and 0.23 μM and the “potency compared with EGF” value (IEC-6 cells; peptide 1 μg/ml vs EGF 50 ng/ml) was “more potent than EGF”. For the same sequence, the “TER after PA-I lectin (in words)” value (Caco2/bbe (C2) cells; 4 hr) was “nearly unchanged”, the “decline of TER after PA-I lectin” value (Caco2/bbe (C2) cells; 4 hr, vehicle ~22%) was 0-5% and the “decline of TER of DSS-injured cultures” value (Caco2/bbe (C2) cells; DSS 4%, 45 min, peptide 8 μg/ml 1 day prior, vehicle ~70%) was roughly 10%. For the same sequence, the “TER 18 hr after removal of DSS” value (Caco2/bbe (C2) cells; DSS 5% for 10 min, peptide 8 μg/ml, vehicle 66±7%) was 112±4 % of control, the “TER after cytochalasin D” value (Caco2/bbe (C2) cells; cytochalasin D 0.01 μg/ml, 2 hr, peptide 8 μg/ml 18 hr pretreatment, vehicle -34%, listed as AMP peptide) was “did not decline significantly; also recorded: prevented the decline” and the “decline of TER of injured cultures” value (Caco2/bbe (C2) cells; monochloramine 0.3 mM or indomethacin 0.1 mM, 90 min, peptide 8 μg/ml, vehicle ~35%) was roughly 10%. For the same sequence, the “decline in TER after monochloramine” value (Caco2/bbe (C2) cells; monochloramine 0.3 mM, 45 min, rhAMP-18 100 nanomolar or peptide 3.7 micromolar pre-treatment, oxidant alone ~35%) was roughly 10%, the “effect on TER of non-injured cells” value (Caco2/bbe (C2) cells; peptide 8 μg/ml) was “did not alter” and the “expression of hsp25 and hsp72 compared to vehicle” value (hsp25, hsp72) was “greater; also recorded: increased”. For the same sequence, the “growth of Staphylococcus epidermidis” value [1] was “did not alter the growth”, the “growth of Acinetobacter baumanii” value (Acinetobacter baumanii) was “did not alter the growth” and the “growth of Aspergillus niger” value (Aspergillus niger) was “did not alter the growth”. The “occludin immunoreactivity of peptide-treated cells exposed to DSS” value ([2]; DSS 4%, vehicle-treated declined about 50% at 1 hr, listed as AMP peptide) was “did not decline; also recorded: not reduced”, the “perijunctional actin, confocal microscopy” value ([2]; oxidant (0.3 mM monochloramine) injury) was “protected” and the “occludin immunoreactivity at cell junctions, confocal microscopy” value ([2]; pretreated prior to monochloramine 0.3 mM, vs untreated injured cells) was “more intense”.

Reference: patent US7629317B2, “Control of growth and repair of gastro-intestinal tissues by gastrokines and inhibitors” (The University of Chicago, priority 2001, dated 2009)
